According to paper PMC11428108 (Frontiers in Molecular Neuroscience, 2024):
Values joined by “and” are separate entries in the source; they are usually repeats but may differ in a detail not shown here. Equal values may be shown once. “Also recorded” adds a separate entry of the source. Read-outs that look alike come from different tables or passages of the source.

Assays:
[1] = biological target: T1, human (α4)2(β2)2β3 nAChRs (Homo sapiens, UniProt P17787+P43681+Q05901); assay: FLEXstation membrane potential assay in HEK cells stably expressing (α4)2(β2)2β3 nAChRs; type: cell-based; conditions: ±SEM
T1 construct: expressed in transfected cells
From the text: Human embryonic kidney (HEK) cell lines stably expressing human (α4)2(β2)2β2/α4 (α4β2*) nAChRs, (α4)2(β2)2α5 nAChRs, (α4)2(β2)2β3 nAChRs, (α3)2(β4)2α3/β4 (α3β4*) nAChRs, (α3)2(β2)2α3/β2 (α3β2*) nAChRs, (α3)2(β4)2α5 nAChRs, or (α3)2(β2)2α5 nAChRs were maintained as described previously ([Wang et al., 2015]; [Kuryatov et al., 2005]; [Caligiuri et al., 2022]). The FLEXstation bench top scanning fluorometer from Molecular Devices was used to assay nAChR function in these cells, according to published protocols ([Wang et al., 2015]; [Kuryatov et al., 2005]). The membrane potential kit (Molecular Devices) was used according to the manufacturer’s protocols. Serial dilutions of SR9883 were manually added to the assay plate 15 min prior to recording. […] Compound dilutions were prepared in V-shaped 96-well plates (Fisher Scientific Co.) and added to cell culture wells at a rate of 20 μL s^−1 during recording. Cells were incubated at 29°C for 6–20 h prior to assays to upregulate nAChRs ([Wang et al., 2015]; [Kuryatov et al., 2005]). Data points were averaged from 3 to 4 responses from separate wells. Potency and efficacy were calculated using the Hill equation as described previously ([Wang et al., 2015]).
Concentration-response curves of SR9883 actions in nAChR-expressing HEK cells and oocytes were fitted to the Hill equation using a nonlinear least squares curve fit method and efficacy and potency values were calculated as previously described ([Wang et al., 2015]). Plasma and brain levels of SR9983 after oral administration were compared using a two-tailed paired t test. […] For the ICSS threshold experiment, percentages of baseline reward threshold scores were calculated by expressing the absolute threshold scores as a percentage of the scores obtained during baseline. The baseline values were the mean thresholds on the three sessions prior to drug injections. Response latency data were analyzed in the same manner as the threshold data. […] Effects of SR9883 on responding for food pellets in rats was analyzed by a two-tailed paired t test. […]

[2] = system: human (α3)2(β2)2α3/β2 (α3β2*) nAChRs; assay: FLEXstation membrane potential assay in HEK cells stably expressing α3β2* nAChRs; type: cell-based; conditions: SR9883 0.0005–10 μM
From the text: (§1) Human embryonic kidney (HEK) cell lines stably expressing human (α4)2(β2)2β2/α4 (α4β2*) nAChRs, (α4)2(β2)2α5 nAChRs, (α4)2(β2)2β3 nAChRs, (α3)2(β4)2α3/β4 (α3β4*) nAChRs, (α3)2(β2)2α3/β2 (α3β2*) nAChRs, (α3)2(β4)2α5 nAChRs, or (α3)2(β2)2α5 nAChRs were maintained as described previously ([Wang et al., 2015]; [Kuryatov et al., 2005]; [Caligiuri et al., 2022]). The FLEXstation bench top scanning fluorometer from Molecular Devices was used to assay nAChR function in these cells, according to published protocols ([Wang et al., 2015]; [Kuryatov et al., 2005]). The membrane potential kit (Molecular Devices) was used according to the manufacturer’s protocols. Serial dilutions of SR9883 were manually added to the assay plate 15 min prior to recording. […] Potency and efficacy were calculated using the Hill equation as described previously ([Wang et al., 2015]).
(§2) Concentration-response curves of SR9883 actions in nAChR-expressing HEK cells and oocytes were fitted to the Hill equation using a nonlinear least squares curve fit method and efficacy and potency values were calculated as previously described ([Wang et al., 2015]). […] For the ICSS threshold experiment, percentages of baseline reward threshold scores were calculated by expressing the absolute threshold scores as a percentage of the scores obtained during baseline. […] Response latency data were analyzed in the same manner as the threshold data. […]

[3] = Plasma pharmacokinetics after IV or PO administration; type: in vivo, male C57BL/6J mice
Description: Mice prepared with intravenous catheters and treated with SR9883 via oral (10 mg kg^−1) or intravenous (1 mg kg^−1) routes of administration. Blood samples were collected up to 240 min after treatment into lithium heparin coated tubes (Ram Scientific) and stored on wet ice. Blood samples were later centrifuged for 3 min at 5,000 RPM to separate plasma from red blood cells. Plasma was collected into a fresh tube and stored at −80°C. A separate group of mice was treated with SR9883 (20 mg kg^−1 PO) and killed by cervical dislocation 120 min later. Their brains were collected and stored at −80°C. SR9883 levels were quantified in plasma and brain by mass spectrometry using an ABSciex 5,500 instrument and using multiple reaction monitoring as previously described ([Radnai et al., 2021]). Brain samples were homogenized in saline and then immediately treated with twice the amount (v:v) of acetonitrile to extract the compound. Plasma samples were directly treated with acetonitrile. Samples were filtered through a 0.2 μm filter plate prior to injection onto the LC–MS/MS as previously described ([Radnai et al., 2021]).

[4] = biological target: T2, human (α3)2(β2)2α5 nAChRs (Homo sapiens, UniProt P17787+P30532+P32297); assay: FLEXstation membrane potential assay in HEK cells stably expressing (α3)2(β2)2α5 nAChRs; type: cell-based; conditions: SR9883 0.0005–10 μM
T2 construct: expressed in transfected cells
From the text: as §1, §2

[5] = male, C57BL/6J, mouse, IV 1 mg kg^−1, plasma, n = 3
[6] = male, C57BL/6J, mouse, PO 10 mg kg^−1, plasma, n = 3

T1 sequence (P43681 29-627 limits assumed): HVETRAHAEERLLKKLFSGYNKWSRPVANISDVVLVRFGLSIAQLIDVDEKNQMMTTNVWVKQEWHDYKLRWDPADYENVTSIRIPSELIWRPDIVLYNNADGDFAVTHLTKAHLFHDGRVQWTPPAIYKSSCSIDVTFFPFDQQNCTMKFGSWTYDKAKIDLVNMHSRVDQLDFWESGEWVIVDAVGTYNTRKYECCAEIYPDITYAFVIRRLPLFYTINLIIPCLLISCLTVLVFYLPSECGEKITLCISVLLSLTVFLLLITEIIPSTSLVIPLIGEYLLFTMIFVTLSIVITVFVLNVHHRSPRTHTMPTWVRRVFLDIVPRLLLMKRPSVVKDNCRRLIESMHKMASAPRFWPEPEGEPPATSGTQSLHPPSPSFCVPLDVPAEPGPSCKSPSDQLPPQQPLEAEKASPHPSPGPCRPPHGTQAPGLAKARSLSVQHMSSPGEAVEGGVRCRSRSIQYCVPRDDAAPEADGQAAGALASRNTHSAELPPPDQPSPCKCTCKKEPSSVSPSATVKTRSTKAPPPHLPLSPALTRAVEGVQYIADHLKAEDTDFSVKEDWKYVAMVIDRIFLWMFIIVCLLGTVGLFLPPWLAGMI
T1 sequence (P17787 26-502): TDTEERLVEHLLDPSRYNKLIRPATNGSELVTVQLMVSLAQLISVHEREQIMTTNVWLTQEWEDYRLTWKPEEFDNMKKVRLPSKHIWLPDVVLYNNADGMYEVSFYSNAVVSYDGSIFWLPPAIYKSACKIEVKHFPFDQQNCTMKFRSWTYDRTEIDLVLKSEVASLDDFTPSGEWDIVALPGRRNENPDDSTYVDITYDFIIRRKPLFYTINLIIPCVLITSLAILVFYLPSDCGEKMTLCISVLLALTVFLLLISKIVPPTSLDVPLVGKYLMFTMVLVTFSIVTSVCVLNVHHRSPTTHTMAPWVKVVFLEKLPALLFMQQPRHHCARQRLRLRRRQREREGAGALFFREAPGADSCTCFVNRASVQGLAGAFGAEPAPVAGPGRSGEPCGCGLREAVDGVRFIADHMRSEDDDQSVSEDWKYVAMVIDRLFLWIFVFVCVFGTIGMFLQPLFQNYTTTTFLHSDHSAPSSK
T1 sequence (Q05901 25-458 limits assumed): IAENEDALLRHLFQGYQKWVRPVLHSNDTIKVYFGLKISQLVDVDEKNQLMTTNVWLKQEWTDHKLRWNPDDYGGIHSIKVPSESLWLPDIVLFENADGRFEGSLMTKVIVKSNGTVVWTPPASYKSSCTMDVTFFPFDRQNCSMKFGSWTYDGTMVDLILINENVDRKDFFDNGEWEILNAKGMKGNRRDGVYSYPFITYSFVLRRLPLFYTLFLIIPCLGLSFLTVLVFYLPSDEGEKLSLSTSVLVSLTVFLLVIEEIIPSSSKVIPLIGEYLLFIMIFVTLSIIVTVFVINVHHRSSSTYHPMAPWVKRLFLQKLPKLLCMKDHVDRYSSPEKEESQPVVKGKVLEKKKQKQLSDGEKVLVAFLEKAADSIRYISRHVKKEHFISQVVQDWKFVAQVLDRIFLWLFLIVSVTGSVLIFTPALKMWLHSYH
T2 sequence (P32297 32-505): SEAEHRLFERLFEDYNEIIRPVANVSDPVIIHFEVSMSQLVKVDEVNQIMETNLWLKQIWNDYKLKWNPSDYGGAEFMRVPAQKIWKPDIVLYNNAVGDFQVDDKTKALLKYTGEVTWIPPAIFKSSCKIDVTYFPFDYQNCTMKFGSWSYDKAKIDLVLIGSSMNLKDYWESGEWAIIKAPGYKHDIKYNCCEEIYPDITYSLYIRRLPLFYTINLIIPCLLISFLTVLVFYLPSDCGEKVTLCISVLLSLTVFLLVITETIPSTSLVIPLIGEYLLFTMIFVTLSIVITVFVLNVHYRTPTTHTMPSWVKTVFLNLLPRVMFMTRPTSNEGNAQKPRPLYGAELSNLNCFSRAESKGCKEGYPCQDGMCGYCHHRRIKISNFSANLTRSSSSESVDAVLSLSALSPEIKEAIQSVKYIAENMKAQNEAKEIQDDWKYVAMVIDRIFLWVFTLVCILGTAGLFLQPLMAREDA
T2 sequence (P17787 26-502): as the sequence (P17787 26-502) above
T2 sequence (P30532 23-468): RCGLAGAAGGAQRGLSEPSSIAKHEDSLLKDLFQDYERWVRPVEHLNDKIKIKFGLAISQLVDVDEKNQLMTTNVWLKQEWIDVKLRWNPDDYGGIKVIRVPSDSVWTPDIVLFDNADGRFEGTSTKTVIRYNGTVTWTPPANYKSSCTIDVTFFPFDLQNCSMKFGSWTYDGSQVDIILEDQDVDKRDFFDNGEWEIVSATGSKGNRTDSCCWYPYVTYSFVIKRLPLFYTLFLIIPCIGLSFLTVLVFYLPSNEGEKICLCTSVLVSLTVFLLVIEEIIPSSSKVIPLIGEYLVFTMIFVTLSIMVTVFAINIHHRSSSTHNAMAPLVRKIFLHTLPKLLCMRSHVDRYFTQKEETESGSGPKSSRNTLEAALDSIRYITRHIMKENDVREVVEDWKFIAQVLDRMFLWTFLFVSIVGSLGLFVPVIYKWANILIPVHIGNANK

## N#Cc1cccc(-n2nnc(-c3cccnc3)n2)c1 [SR9883, 3-(5-(pyridin-3-yl)-2H-tetrazol-2-yl)benzonitrile]
[1]; SR9883 0.0005–10 μM on response to EC20-30 nicotine, HEK cells
  EC50: 0.224 ± 0.149 µM
[1]; SR9883 0.0005–10 μM on response to EC20-30 nicotine
  nHill: 0.8567 ± 0.3792
[1]; response to EC20-30 nicotine with SR9883 relative to nicotine alone
  Efficacy: 96.44 ± 15.93%
[2]
  EC50 (enhancement of response to EC20-30 nicotine): no effect; also recorded: No enhancement
[3]; IV 1 mg kg^−1, n = 3
  Vss_obs: 2.72 ± 0.89 L/kg
[3]; PO 10 mg kg^−1, n = 3
  Cl_obs: 1.475 ± 0.145 L/h/kg
[3]; male, C57BL/6J, mouse, plasma, iv, 1 mg/kg, IV 1 mg kg^−1, as stated in text, read-out: plasma half-life (T½)
  half-life: ~53 min
[3]; male, C57BL/6J, mouse, plasma, iv, 1 mg/kg, IV 1 mg kg^−1, plasma, n = 3
  Cmax: ~775 ng/mL and ~3 µM
[3]; male, C57BL/6J, mouse, plasma, iv, 1 mg/kg, IV 1 mg kg^−1, plasma, n = 3, mean (S.E.M.), read-out: T1/2 (converted)
  half-life: 52.8 ± 21.1 min
[3]; male, C57BL/6J, mouse, plasma, other: intravenous and oral, after IV and oral administration, read-out: half-life
  half-life: 50 to 60 min
[3]; male, C57BL/6J, mouse, plasma, po, 10 mg/kg, PO 10 mg kg^−1, as stated in text, read-out: T½
  half-life: ~64 min
[3]; male, C57BL/6J, mouse, plasma, po, 10 mg/kg, PO 10 mg kg^−1, plasma, n = 3
  Cmax: 1.02 ± 0.0606 µg/mL
[3]; male, C57BL/6J, mouse, plasma, po, 10 mg/kg, PO 10 mg kg^−1, plasma, n = 3, mean (S.E.M.), read-out: T1/2 (converted)
  half-life: 224 ± 36.6 min
[3]; male, C57BL/6J, mouse, plasma, IV 1 mg kg^−1, n = 3, read-out: Cl_obs
  clearance: 2.74 ± 0.77 L/h/kg
[3]; [5]
  AUC(0-t): 1.77 ± 0.62 µM·h
  Tmax: 4.8 min
[3]; [6]
  AUC(0-t): 21.1 ± 0.54 µM·h
  Tmax: 64.8 ± 30.6 min
[4]
  EC50 (enhancement of response to EC20-30 nicotine): no effect; also recorded: No enhancement
